Measurements published in patent US9527840B2, “Substituted-quinoxaline-type piperidine compounds and the uses thereof” (priority 2007, dated 2016).

Key:
kappa opioid receptor = kappa opioid receptor (Homo sapiens, UniProt P41145); assay: In vitro kappa-opioid receptor functional assay ([35S]GTPγS); type: biochemical
[1] = tested on: guinea pig purkinje fibers
hERG channel = molecular target: T1, hERG channel (Homo sapiens, UniProt Q12809); assay: In vitro hERG (human ether a-go-go gene) assay; type: cell-based
T1 construct: expressed in transfected cells
T1 sequence (Q12809 whole entry): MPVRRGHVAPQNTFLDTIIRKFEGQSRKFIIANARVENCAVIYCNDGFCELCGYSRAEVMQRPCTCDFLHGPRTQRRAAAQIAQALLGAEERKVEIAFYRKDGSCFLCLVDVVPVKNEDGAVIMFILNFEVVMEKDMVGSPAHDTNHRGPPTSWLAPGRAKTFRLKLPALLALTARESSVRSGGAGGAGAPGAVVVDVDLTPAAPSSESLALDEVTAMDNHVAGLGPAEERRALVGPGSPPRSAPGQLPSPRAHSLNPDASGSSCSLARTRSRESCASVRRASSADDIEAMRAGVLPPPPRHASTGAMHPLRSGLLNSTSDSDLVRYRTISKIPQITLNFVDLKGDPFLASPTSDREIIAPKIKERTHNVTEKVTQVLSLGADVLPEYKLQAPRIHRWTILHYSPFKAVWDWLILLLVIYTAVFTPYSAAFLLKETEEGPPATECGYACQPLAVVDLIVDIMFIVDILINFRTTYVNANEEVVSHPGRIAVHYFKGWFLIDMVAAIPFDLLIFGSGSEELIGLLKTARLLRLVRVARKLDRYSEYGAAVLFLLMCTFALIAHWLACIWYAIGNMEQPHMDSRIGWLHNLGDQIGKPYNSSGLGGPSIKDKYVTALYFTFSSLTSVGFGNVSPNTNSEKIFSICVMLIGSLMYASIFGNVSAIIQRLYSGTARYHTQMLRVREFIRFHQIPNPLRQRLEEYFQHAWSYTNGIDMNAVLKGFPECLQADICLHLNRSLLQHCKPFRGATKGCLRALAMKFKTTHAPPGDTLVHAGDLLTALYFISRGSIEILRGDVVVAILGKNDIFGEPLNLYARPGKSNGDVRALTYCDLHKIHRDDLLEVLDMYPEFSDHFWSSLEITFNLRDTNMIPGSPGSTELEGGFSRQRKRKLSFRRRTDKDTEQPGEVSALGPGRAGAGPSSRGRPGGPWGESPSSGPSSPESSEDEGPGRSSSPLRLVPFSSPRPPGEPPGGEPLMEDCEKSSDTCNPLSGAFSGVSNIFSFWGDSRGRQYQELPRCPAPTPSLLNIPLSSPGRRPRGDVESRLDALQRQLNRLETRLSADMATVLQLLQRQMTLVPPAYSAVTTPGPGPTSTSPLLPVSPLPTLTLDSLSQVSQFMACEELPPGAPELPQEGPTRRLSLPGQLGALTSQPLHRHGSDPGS

[2] = rat, in vivo

Sequence of kappa opioid receptor (P41145 whole entry): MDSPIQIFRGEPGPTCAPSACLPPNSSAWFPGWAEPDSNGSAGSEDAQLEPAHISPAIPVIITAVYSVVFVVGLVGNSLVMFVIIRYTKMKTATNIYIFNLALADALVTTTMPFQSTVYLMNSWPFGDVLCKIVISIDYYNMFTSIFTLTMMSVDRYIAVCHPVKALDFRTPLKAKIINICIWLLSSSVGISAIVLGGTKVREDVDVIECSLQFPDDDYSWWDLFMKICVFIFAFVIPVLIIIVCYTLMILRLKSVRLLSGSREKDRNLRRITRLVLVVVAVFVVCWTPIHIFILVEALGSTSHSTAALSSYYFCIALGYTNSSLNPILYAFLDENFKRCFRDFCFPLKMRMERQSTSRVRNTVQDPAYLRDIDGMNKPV

| Compound | EC50 (kappa opioid receptor) [µM] | cardiovascular side effects (APD) [1] | cardiovascular side effects (hERG assay) (hERG channel) | abnormal behavioral side effects, such as sedation, hyperactivity and/or hypoactivity [2] |
| --- | --- | --- | --- | --- |
| O=C(O)C1CCN(c2nc3ccccc3n([C@H]3C[C@H]4CC[C@@H](C3)N4C3CCCCCCC3)c2=O)CC1 [Compound 99, 1-(4-((endo)-8-cyclooctyl-8-azabicyclo[3.2.1]octan-3-yl)-3-oxo-3,4-dihydroquinoxalin-2-yl)piperidine-4-carboxylic acid] | > 100 |  |  |  |
| O=C(O)c1nc2ccccc2n([C@H]2C[C@H]3CCC[C@@H](C2)N3C2CC3CCCC(C3)C2)c1=O (stereo partly drawn) [Compound 362, 4-((endo)-9-((exo)-bicyclo[3.3.1]nonan-3-yl)-9-azabicyclo[3.3.1]nonan-3-yl)-3-oxo-3,4-dihydroquinoxaline-2-carboxylic acid] |  | reduced cardiovascular side effects | reduced cardiovascular side effects | reduced abnormal behavioral side effects |
